US20120016009A1, “Optimized Methods For Delivery Of DSRNA Targeting The PCSK9 Gene” (priority 2008, published 2012)
In the oligonucleotide strings, read from the 5' end, every base follows the letter of its sugar. An asterisk marks phosphorothioate; unmarked linkages are phosphodiester. Other units and linkages are bracketed, terminal groups are in braces. A string of capitals states the bases alone. [Ab] = 3'-terminal abasic nucleotide; e = 2'-O-(2-methoxyethyl) (MOE); d = 2'-deoxy (DNA); m = 2'-O-methyl; r = 2'-OH (RNA); {P} = phosphate; f = 2'-fluoro

Tested on: PCSK9 mRNA
Assay: In vitro screening of modified dsRNAs targeted to PCSK9 (Table 2b; cell type not given)
Type: cell-based
Details: 30 nM siRNA
Experimental: For transfection with siRNA, HuH7, HepG2, or HeLa cells were seeded at a density of 2.0×10^4 cells/well in 96-well plates and transfected directly. Transfection of siRNA (30 nM for single dose screen) was carried out with lipofectamine 2000 (Invitrogen GmbH, Karlsruhe, Germany, cat. No. 11668-019) as described by the manufacturer.
24 hours after transfection HuH7 and HepG2 cells were lysed and PCSK9 mRNA levels were quantified with the Quantigene Explore Kit (Genosprectra, Dumbarton Circle Fremont, USA, cat. No. QG-000-02) according to the protocol. PCSK9 mRNA levels were normalized to GAP-DH mRNA. For each siRNA eight individual datapoints were collected. siRNA duplexes unrelated to PCSK9 gene were used as control. The activity of a given PCSK9 specific siRNA duplex was expressed as percent PCSK9 mRNA concentration in treated cells relative to PCSK9 mRNA concentration in cells treated with the control siRNA duplex.
Tables 1b and 2b (and FIG. 6A) summarize the results and provide examples of in vitro screens in different cell lines at different doses. Silencing of PCSK9 transcript was expressed as percentage of remaining transcript at a given dose.

| Substance | Remaining mRNA in % of controls at siRNA conc. of 30 nM [%] |
| --- | --- |
| AD-12051: modified dsRNA, SEQ ID NO:1337/1338 (chain 1 rGmCmCmUrGrGrArGmUmUmUrAmUmUmCrGrGrArArAdTdT[Ab]; chain 2 rUrUrUrCrCrGrArAmUrArArArCrUrCrCrArGrGrCdTdT[Ab]) | 31 |
| AD-12343: modified dsRNA, SEQ ID NO:1385/1386 (chain 1 fGmCfCmUfGmGfAmGfUmUfUmAfUmUfCmGfGmAfAdT*dT; chain 2 mUrUmCrCrGrArAmUrArArArCrUmCmCrArGrGrCdT*dT) | 24 |
| AD-12378: modified dsRNA, SEQ ID NO:1451/1452 (chain 1 rGfCfCfUrGrGrArGfUfUfUrAfUfUfCrGrGrArAdT*dT; chain 2 rUrUrCrCrGmAmArUrAmAmArCrUrCrCrAmGmGmC*mC*mU) | 6 |
| AD-12372: modified dsRNA, SEQ ID NO:1441/1442 (chain 1 GCCUGGAGUUUAUUCGGAATT; chain 2 {P}-mUfUmCfCmGfAmAfUmAfAmAfCmUfCmCfAmGfGmC*fC*mU; chain 1: DNA at T, 2'-MOE at CU, RNA at AG, linkages o19 s1 (s phosphorothioate, o phosphodiester), methylation of C and T or U not given here) | 60 |
| AD-12355: modified dsRNA, SEQ ID NO:1407/1408 (chain 1 fGmCfCmUfGmGfAmGfUmUfUmAfUmUfCmGfGmAfA; chain 2 rUrUrCrCrGrArAmUrArArArCrUrCmCrArGrGrCdT*dT) | 9 |
| AD-12398: modified dsRNA, SEQ ID NO:1491/1492 (chain 1 fGmCfCmUfGmGfAmGfUmUfUmAfUmUfCmGfGmAfAdT*dT; chain 2 {P}-fUfUfCfCrGrArAfUrArArAfCfUfCfCrArGrGfC*fC*fU) | 11 |
| AD-12045: modified dsRNA, SEQ ID NO:1325/1326 (chain 1 rGrCrCrUrGrGrArGrUrUrUrArUrUrCrGrGrArAdT*dT; chain 2 rUrUrCmCrGrArArUrArArArCrUrCrCrArGrGrCdT*dT) | 8 |
| AD-12402: modified dsRNA, SEQ ID NO:1499/1500 (chain 1 rGmCmCmUrGrGrArGmUmUmUrAmUmUmCrGrGrArA; chain 2 {P}-fUfUfCfCrGrArAfUrArArAfCfUfCfCrArGrGfC*fC*fU) | 14 |
| AD-12339: modified dsRNA, SEQ ID NO:1377/1378 (chain 1 rGmCrCmUrGmGrAmGrUmUrUmArUmUrCmGrGmArA; chain 2 {P}-mUfUmCfCmGfAmAfUmAfAmAfCmUfCmCfAmGfGmC) | 14 |
| AD-12063: modified dsRNA, SEQ ID NO:1361/1362 (chain 1 rGmCrCmUrGmGrAmGrUmUrUmArUmUrCmGrGmArA; chain 2 rUrUrCrCrGmAmArUrAmAmArCrUrCrCrAmGmGmC*mC*mU) | 19 |
| AD-12038: modified dsRNA, SEQ ID NO:1311/1312 (chain 1 rGmCmCmUrGrGrArGmUmUmUrAmUmUmCrGrGrArAdT*dT; chain 2 mUrUrCrCrGrArArUrArArArCrUrCrCrArGrGrCdT*dT) | 13 |
| AD-12360: modified dsRNA, SEQ ID NO:1417/1418 (chain 1 GCCUGGAGUUUAUUCGGAA; chain 2 rUrUrCrCrGrArArUrArArArCrUrCrCrArGrGrC*mC*mU; chain 1: sugars from the 5' end rererererererererer, all phosphodiester, methylation of C and T or U not given here) | 15 |
| AD-12341: modified dsRNA, SEQ ID NO:1381/1382 (chain 1 fGmCfCmUfGmGfAmGfUmUfUmAfUmUfCmGfGmAfAdT*dT; chain 2 {P}-mUfUmCfCmGfAmAfUmAfAmAfCmUfCmCfAmGfGmCdT*dT) | 12 |
| AD-12361: modified dsRNA, SEQ ID NO:1419/1420 (chain 1 GCCUGGAGUUUAUUCGGAA; chain 2 rUrUrCrCrGrArAmUrArArArCrUrCmCrArGrGrCdT*dT; chain 1: sugars from the 5' end rererererererererer, all phosphodiester, methylation of C and T or U not given here) | 20 |
| AD-12065: modified dsRNA, SEQ ID NO:1365/1366 (chain 1 rGmCrCmUrGmGrAmGrUmUrUmArUmUrCmGrGmArAdTdT[Ab]; chain 2 rUrUrCrCrGrArAmUrArArArCrUrCmCrArGrGrCdTdT[Ab]) | 16 |
| AD-12050: modified dsRNA, SEQ ID NO:1335/1336 (chain 1 rGmCmCmUrGrGrArGmUmUmUrAmUmUmCrGrGrArAdTdT[Ab]; chain 2 rUrUrCrCrGrArArUrArArArCrUrCrCrArGrGrCdTdT[Ab]) | 16 |
| AD-12049: modified dsRNA, SEQ ID NO:1333/1334 (chain 1 rGmCmCmUrGrGrArGmUmUmUrAmUmUmCrGrGrArArArArG; chain 2 rCrUrUrUrUrCrCrGrArArUrArArArCrUrCrCrArGrGrC*mC*mU) | 34 |
| AD-12054: modified dsRNA, SEQ ID NO:1343/1344 (chain 1 rGrCrCrUrGrGrArGrUrUrUrArUrUrCrGrGrArAdT*dT; chain 2 rUrUrCrCrGrArArUrArArArCrUrCrCrArGrGrC*mC*mU) | 8 |
| AD-12046: modified dsRNA, SEQ ID NO:1327/1328 (chain 1 rGmCmCmUrGrGrArGmUmUmUrAmUmUmCrGrGrArA; chain 2 rUrUrCrCrGrArArUrArArArCrUrCrCrArGrGrC*mC*mU) | 13 |
| AD-12387: modified dsRNA, SEQ ID NO:1469/1470 (chain 1 rGfCfCfUrGrGrArGrGfUfUfUrAfUfUfCrGrGrArA; chain 2 fUfUfCfCrGrArAfUrArArAfCfUfCfCrArGrGfC*fC*fU) | 13 |
| AD-12391: modified dsRNA, SEQ ID NO:1477/1478 (chain 1 rGfCfCfUrGrGrArGrGfUfUfUrAfUfUfCrGrGrArA; chain 2 rUrUrCrCrGmAmArUrAmAmArCrUrCrCrAmGmGmC) | 21 |
| AD-12354: modified dsRNA, SEQ ID NO:1405/1406 (chain 1 fGmCfCmUfGmGfAmGfUmUfUmAfUmUfCmGfGmAfA; chain 2 rUrUrCrCrGrArArUrArArArCrUrCrCrArGrGrC*mC*mU) | 11 |
| AD-12039: modified dsRNA, SEQ ID NO:1313/1314 (chain 1 rGmCmCmUrGrGrArGmUmUmUrAmUmUmCrGrGrArAdT*dT; chain 2 rUmUrCrCrGrArArUrArArArCrUrCrCrArGrGrCdT*dT) | 29 |
| AD-12342: modified dsRNA, SEQ ID NO:1383/1384 (chain 1 fGmCfCmUfGmGfAmGfUmUfUmAfUmUfCmGfGmAfAdT*dT; chain 2 rUrUrCrCrGrArAmUrArArArCrUrCmCrArGrGrCdT*dT) | 13 |
| AD-12399: modified dsRNA, SEQ ID NO:1493/1494 (chain 1 GCCUGGNAGUUUAUUCGGAATT; chain 2 {P}-fUfUfCfCrGrArAfUrArArAfCfUfCfCrArGrGfC*fC*fU; chain 1: chemistry not given here; further chemistry not fully specified) | 13 |
| AD-12061: modified dsRNA, SEQ ID NO:1357/1358 (chain 1 GCCUGGNAGUUUAUUCGGAATT; chain 2 rUrUrCrCrGmAmArUrAmAmArCrUrCrCrAmGmGmCdT*dT; chain 1: chemistry not given here; sense strand contains an undefined nucleotide n) | 7 |
| AD-12371: modified dsRNA, SEQ ID NO:1439/1440 (chain 1 GCCUGGAGUUUAUUCGGAATT; chain 2 {P}-fUfUfCfCrGrArAfUrArArAfCfUfCfCrArGrGfC*fC*fU; chain 1: DNA at T, 2'-MOE at CU, RNA at AG, linkages o19 s1 (s phosphorothioate, o phosphodiester), methylation of C and T or U not given here) | 60 |
| AD-12066: modified dsRNA, SEQ ID NO:1367/1368 (chain 1 rGmCrCmUrGmGrAmGrUmUrUmArUmUrCmGrGmArA; chain 2 rUrUrCrCrGrArAmUrArArArCrUrCmCrArGrGrC*mC*mU) | 20 |
| AD-12338: modified dsRNA, SEQ ID NO:1375/1376 (chain 1 fGmCfCmUfGmGfAmGfUmUfUmAfUmUfCmGfGmAfA; chain 2 {P}-mUfUmCfCmGfAmAfUmAfAmAfCmUfCmCfAmGfGmC) | 15 |
